# Tested on: RSV Long strain
# Test: Viral cytopathic effect (CPE) assay, anti-RSV activity
# Type: cell-based, Respiratory Syncytial Virus
# Conditions: human respiratory syncytial virus, 144 h, RSV Long strain (ATCC); cell viability after 6 days, Cell Counting kit-8
# Method in brief: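 Cells (6×10^3/well, DMEM with 10% FBS) were infected next day with RSV Long strain, at a dose giving approximately 80–90% CPE, alongside serial half-log compound dilutions. Viability was read after 6 days by CCK-8 absorbance at 450 nm (reference 630 nm), and EC50 was derived from it.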
row,Compound,EC50 [µM]
1,"Cc1ccc2nc(N3CCS(=O)(=O)c4ccccc4C3)cc(N3CC(N)C3)c2c1 [Example 26-2, 1-[2-(1,1-Dioxido-2,3-dihydro-1,4-benzothiazepin-4(5H)-yl)-6-methylquinolin-4-yl]azetidin-3-amine]",0.179
2,"NCCCNc1cc(N2CCS(=O)(=O)c3ccccc3C2)nc2cc(Cl)ccc12 [Example 9-11, N-[7-Chloro-2-(1,1-dioxido-2,3-dihydro-1,4-benzothiazepin-4(5H)-yl)quinolin-4-yl]propane-1,3-diamine]",0.953
3,"Cc1ccc2nc(N3CCS(=O)(=O)c4ccccc4C3)cc(NC(=O)[C@@H]3CCCN3)c2c1 [Example 27, N-[2-(1,1-Dioxido-2,3-dihydro-1,4-benzothiazepin-4(5H)-yl)-6-methylquinolin-4-yl]prolinamide]",2.39
4,"Cc1ccc2nc(N3CCS(=O)(=O)c4ccccc4C3)cc(NCC(O)CC(=O)O)c2c1 (centres unmarked) [Example 11-3, 4-{[2-(1,1-Dioxido-2,3-dihydro-1,4-benzothiazepin-4(5H)-yl)-6-methylquinolin-4-yl]amino}-3-hydroxybutanoic acid]",0.922
5,"Cc1ccc2nc(N3CCS(=O)(=O)c4ccccc4C3)cc(NC3CCNCC3)c2c1 [Example 3-39, 2-(1,1-Dioxido-2,3-dihydro-1,4-benzothiazepin-4(5H)-yl)-6-methyl-N-(piperidin-4-yl)quinolin-4-amine]",0.03
6,"O=S1(=O)CCN(c2cc(NC3CNC3)c3cc(Cl)ccc3n2)Cc2ccccc21 [Example 22, N-(Azetidin-3-yl)-6-chloro-2-(1,1-dioxido-2,3-dihydro-1,4-benzothiazepin-4(5H)-yl)quinolin-4-amine]",0.036
7,"COc1ccc2c(c1)CN(c1cc(NCC3(CN)COC3)c3ccccc3n1)CCS2(=O)=O [Example 3-4, N-{[3-(Aminomethyl)oxetan-3-yl]methyl}-2-(7-methoxy-1,1-dioxido-2,3-dihydro-1,4-benzothiazepin-4(5H)-yl)-quinolin-4-amine]",0.006
8,"Cc1ccc2nc(N3CCS(=O)(=O)c4ccccc4C3)cc(N3CCC(N)CC3)c2c1 [Example 9-27, 1-[2-(1,1-Dioxido-2,3-dihydro-1,4-benzothiazepin-4(5H)-yl)-6-methylquinolin-4-yl]piperidin-4-amine]",0.797
9,"NC1(CNc2cc(N3CCS(=O)(=O)c4ccccc4C3)nc3ccc(CO)cc23)COC1 [Example 3-23, [4-{[(3-Aminooxetan-3-yl)methyl]amino}-2-(1,1-dioxido-2,3-dihydro-1,4-benzothiazepin-4(5H)-yl)quinolin-6-yl]methanol]",0.002
10,"COc1ccc2c(c1)S(=O)(=O)CCN(c1cc(NCC3(N)COC3)c3cc(C)ccc3n1)C2 [Example 1-1, N-[(3-Aminooxetan-3-yl)methyl]-2-(8-methoxy-1,1-dioxido-2,3-dihydro-1,4-benzothiazepin-4(5H)-yl)-6-methylquinolin-4-amine]",0.002
11,"Cc1ccc2nc(N3CCS(=O)(=O)c4ccccc4C3)cc(NCCN3CCNCC3)c2c1 [Example 3-28, 2-(1,1-Dioxido-2,3-dihydro-1,4-benzothiazepin-4(5H)-yl)-6-methyl-N-[2-(piperazin-1-yl)ethyl]quinolin-4-amine]",0.149
12,"Cc1ccc2nc(N3CCS(=O)(=O)c4ccccc4C3)cc(NCCC3(N)CC3)c2c1 [Example 20-3, [2-(1-Amino-cyclopropyl)-ethyl]-[2-(1,1-dioxido-2,3-dihydro-1,4-benzothiazepin-4(5H)-yl)-6-methylquinolin-4-yl]-amine]",0.093
13,"Cc1ccc2nc(N3CCS(=O)(=O)c4ccccc4C3)cc(NC[C@H](O)CO)c2c1 [Example 3-10, (2S)-3-{[2-(1,1-Dioxido-2,3-dihydro-1,4-benzothiazepin-4(5H)-yl)-6-methylquinolin-4-yl]amino}propane-1,2-diol]",0.053
14,"COc1ccc2c(c1)S(=O)(=O)CCN(c1cc(NCC3(N)COC3)c3ccccc3n1)C2 [Example 2-9, N-[(3-Aminooxetan-3-yl)methyl]-2-(8-methoxy-1,1-dioxido-2,3-dihydro-1,4-benzothiazepin-4(5H)-yl)quinolin-4-amine]",0.007
15,"Cc1ccc2nc(N3CCS(=O)(=O)c4ccccc4C3)cc(NCC3(N)CCCCC3)c2c1 [Example 2-11, N-[(1-Aminocyclohexyl)methyl]-2-(1,1-dioxido-2,3-dihydro-1,4-benzothiazepin-4(5H)-yl)-6-methylquinolin-4-amine]",0.008

# Results, then the molecule that gave them:
row,EC50 [µM],Compound
1,2.65,"CCC(N)C(=O)Nc1cc(N2CCS(=O)(=O)c3ccccc3C2)nc2ccc(C)cc12 (centres unmarked) [Example 40-4, 2-Amino-N-[2-(1,1-dioxido-2,3-dihydro-1,4-benzothiazepin-4(5H)-yl)-6-methylquinolin-4-yl]butanamide]"
2,0.009,"Cc1ccc2nc(N3CC[S+]([O-])c4ccccc4C3)nc(N[C@@H]3CNC[C@H]3F)c2c1 (relative stereo) [Example 92-1, N-(trans-4-Fluoropyrrolidin-3-yl)-6-methyl-2-(1-oxido-2,3-dihydro-1,4-benzothiazepin-4(5H)-yl)quinazolin-4-amine]"
3,9.31,O=S1(=O)CCN(c2nc(NCC(O)CO)c3cc(Cl)ccc3n2)Cc2ccccc21 (centres unmarked) [Example 87-2]
4,1.34,"Cc1ccc2nc(N3CCC(F)(F)c4ccccc4C3)cc(N3CCCNCC3)c2c1 [Example 111-2, 2-[4-(1,4-Diazepan-1-yl)-6-methylquinolin-2-yl]-5,5-difluoro-2,3,4,5-tetrahydro-1H-2-benzazepine]"
5,0.31,"Cc1ccc2nc(N3CC(=O)Nc4ccccc4C3)cc(NCCN)c2c1 [Example 133-1, 4-{4-[(2-Aminoethyl)amino]-6-methylquinolin-2-yl}-1,3,4,5-tetrahydro-2H-1,4-benzodiazepin-2-one]"
6,0.202,"Cc1ccc2nc(N3CCS(=O)(=O)c4ccccc4C3)cc(S(=O)(=O)NCCN)c2c1 [Example 103, N-(2-Aminoethyl)-2-(1,1-dioxido-2,3-dihydro-1,4-benzothiazepin-4(5H)-yl)-6-methylquinoline-4-sulfonamide]"
7,5.48,"C[S+]([O-])c1ccc2nc(N3CCS(=O)(=O)c4ccccc4C3)cc(NCCCN)c2c1 (centres unmarked) [Example 80, N-[2-(1,1-Dioxido-2,3-dihydro-1,4-benzothiazepin-4(5H)-yl)-6-(methylsulfinyl)quinolin-4-yl]propane-1,3-diamine]"
8,0.094,"C=Cc1ccc2nc(N3CCS(=O)(=O)c4ccccc4C3)cc(NCCCN)c2c1 [Example 53, N-[2-(1,1-Dioxido-2,3-dihydro-1,4-benzothiazepin-4(5 H)-yl)-6-ethenylquinolin-4-yl]propane-1,3-diamine]"
9,0.044,"Cc1ccc2nc(N3CCS(=O)(=O)c4ccc(N5CCOCC5)cc4C3)cc(NCC3(N)COC3)c2c1 [Example 33-1, N-[(3-Aminooxetan-3-yl)methyl]-2-(7-morpholin-4-yl-1,1-dioxido-2,3-dihydro-1,4-benzothiazepin-4(5H)-yl)-6-methylquinolin-4-amine]"
10,0.448,"NCCNc1cc(N2CCCc3c(Cl)cccc3C2)nc2ccccc12 [Example 118-12, N-[2-(6-Chloro-1,3,4,5-tetrahydro-2H-2-benzazepin-2-yl)quinolin-4-yl]ethane-1,2-diamine]"
11,1.08,"NCC1(CNc2cc(N3CCS(=O)(=O)c4ccccc4C3)nc3ccc(C(=O)O)cc23)COC1 [Example 105, 4-({[3-(Aminomethyl)oxetan-3-yl]methyl}amino)-2-(1,1-dioxido-2,3-dihydro-1,4-benzothiazepin-4(5H)-yl)quinoline-6-carboxylic acid]"
12,0.186,"Cc1ccc2nc(N3CCC(F)(F)c4ccccc4C3)nc(NCC(CN)(CO)CO)c2c1 [Example 114-4, 2-(Aminomethyl)-2-({[2-(5,5-difluoro-1,3,4,5-tetrahydro-2H-2-benzazepin-2-yl)-6-methylquinazolin-4-yl]amino}methyl)propane-1,3-diol]"
13,0.283,"Cc1ccc2nc(N3CCC(F)(F)c4ccccc4C3)cc(NCCN(C)C)c2c1 [Example 111-8, N′-[2-(5,5-Difluoro-1,3,4,5-tetrahydro-2H-2-benzazepin-2-yl)-6-methylquinolin-4-yl]-N,N-dimethylethane-1,2-diamine]"
14,0.064,"Cc1ccc2nc(N3CCS(=O)(=O)c4ccccc4C3)cc(NC[C@H]3COC(N)=N3)c2c1 [Example 38-4, N-{[(4S)-2-Amino-4,5-dihydro-1,3-oxazol-4-yl]methyl}-2-(1,1-dioxido-2,3-dihydro-1,4-benzothiazepin-4(5 H)-yl)-6-methylquinolin-4-amine]"
15,2.45,"O=S1(=O)CCN(c2cc(NCC(O)CO)c3cc(Cl)ccc3n2)Cc2ccccc21 (centres unmarked) [Example 32-2, 3-{[6-Chloro-2-(1,1-dioxido-2,3-dihydro-1,4-benzothiazepin-4(5H)-yl)quinolin-4-yl]amino}propane-1,2-diol]"
16,0.005,"Cc1ccc2nc(N3CCC(F)(F)c4ccccc4C3)nc(NCC3(N)COC3)c2c1 [Example 116-1, N-[(3-Aminooxetan-3-yl)methyl]-2-(5,5-difluoro-1,3,4,5-tetrahydro-2H-2-benzazepin-2-yl)-6-methylquinazolin-4-amine]"
17,0.721,"Cc1ccc2nc(N3CCS(=O)(=O)c4ccccc4C3)cc(NC(=O)C3CCN3)c2c1 (centres unmarked) [Example 49, N-[2-(1,1-Dioxido-2,3-dihydro-1,4-benzothiazepin-4(5H)-yl)-6-methylquinolin-4-yl]azetidine-2-carboxamide]"
18,0.048,"NCCNc1cc(N2CCCc3ccc(O)cc3C2)nc2ccccc12 [Example 118-2, 2-{4-[(2-Aminoethyl)amino]quinolin-2-yl}-2,3,4,5-tetrahydro-1H-2-benzazepin-8-ol]"
19,0.072,"Cc1ccc2nc(N3CCC(F)(F)c4ccccc4C3)cc(NCC(C)(C)N)c2c1 [Example 110-12, N˜1˜-[2-(5,5-Difluoro-1,3,4,5-tetrahydro-2H-2-benzazepin-2-yl)-6-methylquinolin-4-yl]-2-methylpropane-1,2-diamine]"
20,0.178,"NCCNc1cc(N2CCCc3ccccc3C2)nc2ccc(Cl)cc12 [Example 118-5, N-[6-Chloro-2-(1,3,4,5-tetrahydro-2H-2-benzazepin-2-yl)quinolin-4-yl]ethane-1,2-diamine]"
